The text below walks through data of patent publication EP0372889A1, “Doxorubicin solutions” (Bristol-Myers Squibb Company, priority 1988, dated 1990).

Counter-ions that a name gives are not always drawn. Like-named read-outs stand apart in the source and are kept apart here. Where only a bound is given, the exact number is not on record here.

For data set [1] the following is noted: cited from earlier work.
Data set [2] is classed as physicochemical. From the text:
It is also necessary for optimum stability of the solutions, especially at elevated temperatures which may be encountered at some time during the life of the product, e.g. during shipping, to utilize an antioxidant. We have tested a number of antioxidants including α-tocopherol, tert-butylhydroquinone (TBHQ), sodium formaldehyde bisulfite, butylated hydroxy anisole (BHA), butylated hydroxy toluene (BHT), sodium bisulfite and propyl gallate. […] This finding was disclosed and claimed in our EP-A-88111434.2 and in co-pending U.S. application Serial Number 246,602 filed September 20, 1988 and incorporated by reference herein in their entirety. […] Generally, an amount of sodium acetone bisulfite is employed in the range of about 0.1 to 20 mg/ml with about 2 mg/ml being most preferred.
Despite reports of potency losses of doxorubicin HCl solutions via photolytic degradation and adsorption to container walls, we have not noted any significant loss of potency due to container adsorption or sensitivity to normal room light with our solutions. Glass vials may conveniently be used as the container.
As an example of a stable non-aqueous solution of doxorubicin, 20 mg/ml of doxorubicin hydrochloride, 0.2 mg/ml citric acid (anhydrous), 2.0 mg/ml of sodium acetone bisulfite and a solvent medium consisting of deaerated propylene glycol/water (90:10 v/v) are added to a Type 1 flint vial, the vial is purged with nitrogen and then sealed with a suitable teflon-coated stopper. […] Substantially equivalent results are obtained when 1,2-dihydroxybutane and 1,3-dihydroxypropane solvent systems are used.

Data set [3] can be described thus: Solubility of doxorubicin HCl in non-aqueous solvents. It counts as physicochemical. The settings on record: for solubility: organic solvent or mixture. On the procedure:
Doxorubicin HCl at room temperature has a solubility of less than 5 mg/ml in propylene glycol, 1,2-dihydroxybutane and 1,3-dihydroxypropane. […] Solubility of doxorubicin HCl can be increased to about 20 mg/ml in the above-mentioned solvents by addition of 5-10% (v/v) water.

Consider `COc1cccc2c1C(=O)c1c(O)c3c(c(O)c1C2=O)C[C@@](O)(C(=O)CO)C[C@@H]3O[C@H]1C[C@H](N)[C@H](O)[C@H](C)O1` [Doxorubicin HCl, doxorubicin hydrochloride], for which the stable in data set [1] (commercial preservative-free ready-to-use aqueous solution, 4°C, manufacturer) was 18 months. Further, the “undesirable and potentially toxic degradation products” value in data set [1] (commercial ready-to-use aqueous solution, at the end of 18 months at 4°C, 788400 min) is given as “up to 10%”. The remains stable entry in data set [1] (reconstituted solution in 0.9% NaCl solution, room temperature or 5°C, Ketcyhum, et al.) is given as “seven”. Further, the potency retained in data set [2] (20 mg/ml, 0.2 mg/ml citric acid, 2.0 mg/ml sodium acetone bisulfite, propylene glycol/water (90:10 v/v), nitrogen purged, 2 weeks at 40°C, 20160 min) was determined as 97.2%; in data set [2] (same solution, 4 weeks at 40°C, 40320 min), 93.4%; in data set [2] (same solution, 12 weeks at 40°C, 120960 min), 88.2%. Besides, the “acceptable shelf-life (≦10% potency loss)” value in data set [2] (same solution, 37°C) was “at least four”; in data set [2] (same solution, room temperature) it was “at least 18 months”. In addition, the “chemical stability of solutions” value in data set [3] (glycerol formal, 2-pyrrolidinone and 1-methyl-2-pyrrolidinone) was “chemically unstable”. In addition, the solubility was at least 5000 µg/mL in data set [3] (glycerol formal, pyrrolidinones, glycerol formal, 2-pyrrolidinone and 1-methyl-2-pyrrolidinone, read-out: solution concentration produced); around 20000 µg/mL in data set [3] (glycols with 5-10% water, propylene glycol, 1,2-dihydroxybutane, 1,3-dihydroxypropane with addition of 5-10% (v/v) water, read-out: Solubility); below 5000 µg/mL in data set [3] (propylene glycol, butanediol, propanediol, room temperature, in propylene glycol, 1,2-dihydroxybutane and 1,3-dihydroxypropane, read-out: solubility); around 10000 µg/mL in data set [3] (propylene glycol, butanediol, propanediol, same solvents, short-term (0.5-1 hour) warming (60-80°C) with vigorous stirring, read-out: solubility); below 5000 µg/mL in data set [3] (various organic solvents, with heating, polyethylene glycols, ethanol, benzyl alcohol, dimethylisosorbide, ethyl lactate, Solketol, Cremophors, Pluronics, read-out: Solubilities). The “physical stability of solution on cold storage” value in data set [3] (stored at 4°C to -20°C, seeding with crystalline doxorubicin HCl does not affect crystallization) is recorded as “remains in solution”. Further, in data set [3] (upon short-term (0.5-1 hour) warming (60-80°C) in propylene glycol, 1,2-dihydroxybutane, 1,3-dihydroxypropane), the potency loss result is given as “no potency loss”.

For `O=S(=O)(O)CO` [sodium formaldehyde bisulfite], in data set [2], the “stabilization of doxorubicin solutions by antioxidant” value (“stabilization” below) was “resulted in the desired stability”.

Take `CC(C)(C)c1cc(O)ccc1O` [tert-butylhydroquinone]: in data set [2] (elevated temperatures as well as room temperature (25°C) or below), the “stabilization” value is “resulted in the desired stability”.

For `Cc1c(C)c2c(c(C)c1O)CCC(C)(CCCC(C)CCCC(C)CCCC(C)C)O2` (stereo not drawn) [α-tocopherol], the “stabilization” value in data set [2] is reported as “resulted in the desired stability”.
